This note sets out measurements from ChEMBL document CHEMBL1201862, “PubChem BioAssay data set” (2004).

Active and inactive are the calls of the source.

One assay has as its target Hexokinase (Trypanosoma brucei, UniProt Q38C41). In words: Confirmation assay for inhibitors of Trypanosoma brucei hexokinase 1-Analogue-first series. [Related pubchem assays (depositor defined):AID1430, AID1632, AID2516, AID2560, AID2579, AID2600, AID449725, AID492951]. It is filed as functional.
Assay [1] addresses Alkaline phosphatase, placental type (Homo sapiens, UniProt P05187). As to the kind of experiment: PLAP enzyme inhibitors, confirmation, biochemical, luminescence (AID 1512). It is filed as functional.
Assay [2] deals with T1, Alkaline phosphatase, tissue-nonspecific isozyme (Homo sapiens, UniProt P05186).
T1 sequence (P05186 whole entry): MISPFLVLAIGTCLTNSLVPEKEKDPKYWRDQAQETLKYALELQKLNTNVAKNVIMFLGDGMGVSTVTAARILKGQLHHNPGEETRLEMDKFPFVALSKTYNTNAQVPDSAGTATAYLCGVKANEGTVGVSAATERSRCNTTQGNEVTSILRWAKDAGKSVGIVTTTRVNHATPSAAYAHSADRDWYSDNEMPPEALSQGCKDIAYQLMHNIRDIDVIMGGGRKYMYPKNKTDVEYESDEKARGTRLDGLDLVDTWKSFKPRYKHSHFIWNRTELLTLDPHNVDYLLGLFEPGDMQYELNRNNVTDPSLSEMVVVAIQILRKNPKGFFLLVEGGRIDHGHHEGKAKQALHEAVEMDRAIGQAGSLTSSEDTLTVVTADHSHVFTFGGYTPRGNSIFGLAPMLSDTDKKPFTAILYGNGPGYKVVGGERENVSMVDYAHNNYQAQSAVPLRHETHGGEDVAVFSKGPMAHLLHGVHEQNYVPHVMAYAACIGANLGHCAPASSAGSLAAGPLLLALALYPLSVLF
As to the kind of experiment: human TNAP enzyme inhibitors, SAR follow-up, biochemical, luminescent, dose response (AID 1056).

The nature of assay [3]: Luminescence Cell-Based Dose Retest to Confirm Inhibitors of Cancer Stem Cells. [Related pubchem assays (depositor defined):AID2717, AID2721]. It is filed as functional. As to conditions: Homo sapiens.
The target in assay [4] is E3 ubiquitin-protein ligase Mdm2/Protein Mdm4 (Homo sapiens, UniProt O15151+Q00987). As to the kind of experiment: Mdm2-MdmX interaction inhibitors, dose response, luminescence detection (AID 504593). It is filed as functional.
The test system of assay [5] is Vero. In words: cells. It is filed as functional, cell-based. As to conditions: Chlorocebus sabaeus.
The subject of assay [6] is Vero. In words: cells. It is filed as functional. To be noted: Chlorocebus sabaeus.
The next assay concerns the target Beta-galactosidase (Escherichia coli, UniProt Q8VNN2). As to the kind of experiment: beta-galactosidase enzyme inhibitors and activators, dose response, artefact control for CCR6 antagonist project, biochemical, E. coli enzyme, set 3 (AID 504712). It is filed as functional.
Assay [7] has as its target Mitochondrial peptide methionine sulfoxide reductase (Bos taurus, UniProt P54149). In words: Absorbance-based biochemical high throughput dose response assay for activators of Methionine sulfoxide reductase A (MsrA). It is filed as functional.
Assay [8] concerns the target T2, Type-1 angiotensin II receptor (Homo sapiens, UniProt P30556).
T2 sequence (P30556 whole entry): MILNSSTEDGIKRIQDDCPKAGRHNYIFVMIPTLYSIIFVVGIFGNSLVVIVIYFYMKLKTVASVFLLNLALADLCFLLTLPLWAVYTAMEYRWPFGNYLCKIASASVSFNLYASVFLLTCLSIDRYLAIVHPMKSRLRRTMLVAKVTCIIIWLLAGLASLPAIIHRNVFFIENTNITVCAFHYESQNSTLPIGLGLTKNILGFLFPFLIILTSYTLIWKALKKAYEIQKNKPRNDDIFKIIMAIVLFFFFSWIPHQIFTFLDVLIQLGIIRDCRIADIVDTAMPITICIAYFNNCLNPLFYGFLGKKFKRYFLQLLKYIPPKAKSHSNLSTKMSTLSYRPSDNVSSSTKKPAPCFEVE
As to the kind of experiment: AT1 receptor agonists, dose response, selectivity assay for APJ receptor agonist project, cell-based, uHTS hits (AID 488865).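 Further: beta-arrestin recruitment to AT1 measured by enzyme fragment complementation luminescence.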 It is filed as functional.
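Wherever AC50 is given: cells exposed to compound for roughly 70 hours or longer before luminescence read.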

Sequence of Beta-galactosidase (Q8VNN2 whole entry): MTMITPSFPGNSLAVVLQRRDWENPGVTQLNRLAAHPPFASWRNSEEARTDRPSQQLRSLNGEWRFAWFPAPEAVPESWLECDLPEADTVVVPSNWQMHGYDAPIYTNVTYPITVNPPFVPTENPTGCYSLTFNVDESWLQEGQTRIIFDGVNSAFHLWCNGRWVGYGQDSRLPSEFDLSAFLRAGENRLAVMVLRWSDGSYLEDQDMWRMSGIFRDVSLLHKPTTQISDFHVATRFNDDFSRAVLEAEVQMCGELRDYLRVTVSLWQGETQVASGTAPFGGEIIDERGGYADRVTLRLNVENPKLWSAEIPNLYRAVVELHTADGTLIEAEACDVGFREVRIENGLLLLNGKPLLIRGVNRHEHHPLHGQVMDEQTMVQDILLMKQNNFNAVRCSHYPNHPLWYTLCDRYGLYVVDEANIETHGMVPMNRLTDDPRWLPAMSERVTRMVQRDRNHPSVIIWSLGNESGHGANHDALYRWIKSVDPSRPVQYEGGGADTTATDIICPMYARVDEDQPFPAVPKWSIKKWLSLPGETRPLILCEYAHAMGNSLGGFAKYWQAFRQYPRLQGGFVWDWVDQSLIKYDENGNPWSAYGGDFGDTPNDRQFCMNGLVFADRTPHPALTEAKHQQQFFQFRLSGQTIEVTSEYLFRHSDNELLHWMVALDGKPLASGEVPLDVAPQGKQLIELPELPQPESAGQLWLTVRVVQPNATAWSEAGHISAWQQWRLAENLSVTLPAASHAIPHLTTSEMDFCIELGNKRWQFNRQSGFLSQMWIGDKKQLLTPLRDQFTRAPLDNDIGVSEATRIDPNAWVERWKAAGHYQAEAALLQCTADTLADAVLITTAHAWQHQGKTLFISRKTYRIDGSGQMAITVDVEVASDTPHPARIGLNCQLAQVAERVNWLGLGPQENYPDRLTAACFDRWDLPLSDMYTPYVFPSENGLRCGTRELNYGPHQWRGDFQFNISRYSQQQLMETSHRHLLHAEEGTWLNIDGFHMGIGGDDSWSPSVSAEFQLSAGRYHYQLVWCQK
Sequence of Hexokinase (Q38C41 whole entry): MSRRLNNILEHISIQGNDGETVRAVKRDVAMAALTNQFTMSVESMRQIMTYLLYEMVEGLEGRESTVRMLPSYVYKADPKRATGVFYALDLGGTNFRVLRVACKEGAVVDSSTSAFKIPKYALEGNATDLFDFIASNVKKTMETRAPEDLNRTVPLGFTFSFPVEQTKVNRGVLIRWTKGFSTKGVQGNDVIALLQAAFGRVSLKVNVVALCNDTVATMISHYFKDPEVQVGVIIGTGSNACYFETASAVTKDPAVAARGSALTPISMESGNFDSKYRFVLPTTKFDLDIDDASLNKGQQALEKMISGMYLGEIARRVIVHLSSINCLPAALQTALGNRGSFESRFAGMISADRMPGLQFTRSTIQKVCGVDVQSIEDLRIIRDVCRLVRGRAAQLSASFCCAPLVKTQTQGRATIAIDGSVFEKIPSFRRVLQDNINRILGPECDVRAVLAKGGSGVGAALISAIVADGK
Sequence of Mitochondrial peptide methionine sulfoxide reductase (P54149 whole entry): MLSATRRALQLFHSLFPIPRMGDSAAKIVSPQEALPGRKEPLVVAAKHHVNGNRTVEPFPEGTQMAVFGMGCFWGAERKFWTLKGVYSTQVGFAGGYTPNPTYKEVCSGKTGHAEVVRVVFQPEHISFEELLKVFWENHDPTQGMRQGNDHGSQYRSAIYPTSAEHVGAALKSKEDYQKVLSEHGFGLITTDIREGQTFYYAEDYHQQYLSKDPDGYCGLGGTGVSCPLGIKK
Sequence of Alkaline phosphatase, placental type (P05187 whole entry): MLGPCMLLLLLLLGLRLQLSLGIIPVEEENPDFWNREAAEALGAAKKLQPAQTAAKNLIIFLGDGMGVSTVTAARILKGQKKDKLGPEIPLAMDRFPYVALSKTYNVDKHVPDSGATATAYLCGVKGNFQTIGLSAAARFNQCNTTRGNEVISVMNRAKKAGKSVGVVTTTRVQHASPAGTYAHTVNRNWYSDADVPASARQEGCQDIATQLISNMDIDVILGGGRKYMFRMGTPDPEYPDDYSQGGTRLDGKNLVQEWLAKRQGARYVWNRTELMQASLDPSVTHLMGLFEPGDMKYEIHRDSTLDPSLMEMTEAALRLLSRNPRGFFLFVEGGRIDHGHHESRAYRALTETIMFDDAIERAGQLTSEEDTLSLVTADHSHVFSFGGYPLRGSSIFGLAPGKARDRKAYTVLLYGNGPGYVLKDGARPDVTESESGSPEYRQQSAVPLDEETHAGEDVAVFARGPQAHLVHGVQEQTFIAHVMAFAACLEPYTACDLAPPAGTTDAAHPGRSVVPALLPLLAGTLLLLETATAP
Sequence of E3 ubiquitin-protein ligase Mdm2/Protein Mdm4 (Q00987 whole entry): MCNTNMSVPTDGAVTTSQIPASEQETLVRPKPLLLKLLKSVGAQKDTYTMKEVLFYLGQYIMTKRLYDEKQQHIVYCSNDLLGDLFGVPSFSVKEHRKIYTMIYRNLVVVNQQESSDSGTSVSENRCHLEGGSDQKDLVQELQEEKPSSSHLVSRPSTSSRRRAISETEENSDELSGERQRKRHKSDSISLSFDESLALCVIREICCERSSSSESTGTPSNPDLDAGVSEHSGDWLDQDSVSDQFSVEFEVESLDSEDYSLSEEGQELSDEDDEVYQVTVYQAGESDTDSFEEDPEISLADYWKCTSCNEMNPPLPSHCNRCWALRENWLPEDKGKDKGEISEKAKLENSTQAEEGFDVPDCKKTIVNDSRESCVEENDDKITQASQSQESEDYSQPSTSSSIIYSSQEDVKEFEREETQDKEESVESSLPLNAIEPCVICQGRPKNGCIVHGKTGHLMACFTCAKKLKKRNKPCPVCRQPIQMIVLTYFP
Sequence of E3 ubiquitin-protein ligase Mdm2/Protein Mdm4 (O15151 whole entry): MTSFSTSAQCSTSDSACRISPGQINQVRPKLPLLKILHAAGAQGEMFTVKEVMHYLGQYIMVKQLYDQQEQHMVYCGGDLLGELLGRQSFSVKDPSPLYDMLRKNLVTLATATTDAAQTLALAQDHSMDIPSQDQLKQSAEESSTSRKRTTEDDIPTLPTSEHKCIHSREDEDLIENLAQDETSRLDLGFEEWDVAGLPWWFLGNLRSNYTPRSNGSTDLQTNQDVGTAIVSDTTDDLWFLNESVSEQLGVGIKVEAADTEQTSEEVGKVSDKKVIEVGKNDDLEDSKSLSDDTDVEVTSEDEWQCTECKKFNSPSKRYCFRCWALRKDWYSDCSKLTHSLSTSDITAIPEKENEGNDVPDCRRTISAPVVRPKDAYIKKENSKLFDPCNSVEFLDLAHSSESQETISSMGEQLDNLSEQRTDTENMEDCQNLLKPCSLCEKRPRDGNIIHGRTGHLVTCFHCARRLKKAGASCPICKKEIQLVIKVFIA

Usually IC50 stands for the concentration that gives 50% inhibition. Consider `COc1ccc(Nc2cc(Cl)ccc2C(=O)O)cc1`, for which, on Hexokinase, the IC50 was > 25 µM (inactive).
Take `C=CCn1c(SCC(=O)c2ccc(O)c(O)c2)nnc1-c1ccc(Cl)cc1`: the figures for the IC50 in assay [1] and in [2] were 11.8 µM (active) and > 100 µM (inactive), respectively.
A word on the AC50: it is the concentration giving half of the maximal activity seen. In general, CC50 refers to the concentration giving 50% cytotoxicity. As for `O=C(/C=C/c1c(F)cccc1Cl)c1ccc(O)cc1`, the AC50 in assay [3] was 6.85 µM (active). Further, the IC50 was 5.74 µM (active) in [4] and 23.6 µM (active) in the assay with Vero [5]. Also, the CC50 in the assay with Vero [6] is 19.9 µM (active).
By EC50 is commonly meant the concentration giving half of the maximal effect. Turning to `CS(=O)(=O)c1cc([N+](=O)[O-])c(Sc2nc3ccccc3[nH]2)c([N+](=O)[O-])c1`, the IC50 at Beta-galactosidase was > 66.6 µM (inactive). For the same compound, in assay [7], the EC50 is > 104 µM (inactive).
On to `C=CCSc1nc(=O)c(CC)c(O)n1C(C)CC` (stereo not given), for which the EC50 in assay [8] is > 100 µM (inactive).
